The target in one assay is T1, Protein phosphatase 1D (Homo sapiens, UniProt O15297).
T1 sequence (O15297 whole entry): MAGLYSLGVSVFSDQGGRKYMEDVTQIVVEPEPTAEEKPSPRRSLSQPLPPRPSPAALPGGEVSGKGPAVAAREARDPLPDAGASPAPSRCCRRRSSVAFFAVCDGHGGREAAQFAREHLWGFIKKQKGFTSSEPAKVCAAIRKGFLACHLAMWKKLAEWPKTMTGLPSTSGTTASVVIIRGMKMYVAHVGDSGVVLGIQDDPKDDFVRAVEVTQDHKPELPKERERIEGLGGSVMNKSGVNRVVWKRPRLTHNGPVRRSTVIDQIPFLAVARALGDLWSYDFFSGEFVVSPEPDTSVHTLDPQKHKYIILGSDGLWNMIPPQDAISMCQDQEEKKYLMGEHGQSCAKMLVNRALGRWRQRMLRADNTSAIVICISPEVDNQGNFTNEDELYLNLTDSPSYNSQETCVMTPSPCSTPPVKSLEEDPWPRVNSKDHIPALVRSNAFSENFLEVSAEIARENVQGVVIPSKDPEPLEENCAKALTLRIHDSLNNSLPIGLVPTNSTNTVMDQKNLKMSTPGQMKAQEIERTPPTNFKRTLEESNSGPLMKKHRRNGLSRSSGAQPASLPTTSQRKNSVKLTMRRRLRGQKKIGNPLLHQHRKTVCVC
The assay is described as follows: Inhibition of human Wip1 (2 to 420 residues) expressed in baculovirus-infected insect SF9 cells assessed as fluorescein diphosphate hydrolysis after 5 mins by fluorescence assay.

A further assay concerns the target MAP kinase p38 (Homo sapiens, UniProt O15264+Q15759+Q16539+P53778). Put plainly: Inhibition of p38 MAPK (unknown origin). It counts as protein assay.
The target of assay [1] is Proto-oncogene tyrosine-protein kinase Src (Gallus gallus, UniProt P00523). Put plainly: Inhibition of chicken Src kinase domain using AEEEIYGEFAKKK as substrate by continuous spectrophotometric assay.
Assay [2] in a line: Displacement of [3H]-3-(1-(3-chloro-6-isopropyl-8-(trifluoromethyl)imidazo[1,2-a]pyridine-2-carbonyl)piperidin-4-yl)oxazolidin-2-one from HCV genotype 1b C-terminal His6-tagged NS4B (1 to 261 residues) expressed in baculovirus infected insect SF9 cells. On the set-up: species or system Hepatitis C virus subtype 1b.
Another assay has as its target Interleukin-2 (Homo sapiens, UniProt P60568). Put plainly: Binding affinity to human IL-2 measured over 30 mins by fluorescence polarization assay.
Assay [3] is described as follows: Binding affinity to HSP70 (unknown origin) by surface plasmon resonance method. Details: species or system Homo sapiens.
In assay [4] the target is T2, 2',5'-phosphodiesterase 12 (Homo sapiens, UniProt Q6L8Q7).
T2 sequence (Q6L8Q7 whole entry): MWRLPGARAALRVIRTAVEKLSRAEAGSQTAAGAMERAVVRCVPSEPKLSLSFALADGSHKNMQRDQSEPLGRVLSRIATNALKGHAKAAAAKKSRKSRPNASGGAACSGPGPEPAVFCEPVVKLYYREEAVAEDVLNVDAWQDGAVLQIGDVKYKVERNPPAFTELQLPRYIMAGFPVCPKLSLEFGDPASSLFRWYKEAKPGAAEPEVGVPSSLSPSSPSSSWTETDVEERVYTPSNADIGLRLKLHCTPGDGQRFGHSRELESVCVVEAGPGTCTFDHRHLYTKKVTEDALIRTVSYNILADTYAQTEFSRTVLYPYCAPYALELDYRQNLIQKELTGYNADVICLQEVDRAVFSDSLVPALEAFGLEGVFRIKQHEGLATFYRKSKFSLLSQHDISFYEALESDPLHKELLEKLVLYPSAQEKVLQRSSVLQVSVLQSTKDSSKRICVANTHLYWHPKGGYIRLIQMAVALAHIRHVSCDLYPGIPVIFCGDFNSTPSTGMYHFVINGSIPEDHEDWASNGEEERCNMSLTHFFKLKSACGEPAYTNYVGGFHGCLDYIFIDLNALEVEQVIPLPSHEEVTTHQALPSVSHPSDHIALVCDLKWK
The assay is described as follows: Inhibition of human PDE12 (17 to 609 residues) expresssed in Escherichia coli BL21(DE3) cells using 2-5A as substrate assessed as AMP monomers and ATP formation after 30 mins by AMP-Glo assay.

Assay [5] is described as follows: Binding affinity to human plasma AGP by isothermal titration calorimetry. It counts as ADME.

Sequence of Interleukin-2 (P60568 whole entry): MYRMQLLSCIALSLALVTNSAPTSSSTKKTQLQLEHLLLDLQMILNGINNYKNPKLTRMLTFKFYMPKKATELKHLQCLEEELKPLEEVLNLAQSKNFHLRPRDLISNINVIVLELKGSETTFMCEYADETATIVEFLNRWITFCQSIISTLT

One may read the IC50 as the midpoint of a concentration-inhibition curve. For `Cc1ncc(Cl)cc1NCc1ccc(C(=O)N[C@@H](CC2CCCC2)C(=O)NC2CC2)s1`, the IC50 at Protein phosphatase 1D was determined as 6 nM.

Molecule `CNC(=O)C(Cc1ccc2c(c1)COC(C)(C)O2)Nc1nc(O)nc(-n2ccc3ccc(C(=O)N4CCCc5ccccc54)cc32)n1` (stereo not drawn) had an IC50 at MAP kinase p38 of 7 nM.

Turning to `O=C1/C=C\C(=O)N[C@@H](CC2CCCCC2)C(=O)N[C@@H](Cc2ccccc2)C(=O)N[C@@H](CCCNC(=O)c2cnccn2)C(=O)NCC[C@@H](C(=O)O)N1`, in assay [1], the IC50 is 4 nM.

`O=C(c1ccc2[nH]ccc2c1)N1CCC2(CCCN(c3ncc(-c4ccccc4)c(-c4ccc(Cl)cc4)n3)C2)CC1`: the IC50 in assay [2] was 42 nM.

The term Kd denotes the equilibrium constant for the complex coming apart. Take `CCCC#Cc1ccc(C[C@@H](NC(=O)CCn2c(C)cc3ccccc32)C(=O)O)cc1`: at Interleukin-2, the Kd came to 4200 nM.

In assay [3], `NC(=O)C(CNC(=O)c1ccc2[nH]nc(Br)c2c1)NC(=O)c1cccc(NC(=O)CCC(=O)c2ccc(-c3ccccc3)cc2)c1` (stereo not drawn) displayed a Kd of 0.64 nM.

On to `CCn1cc(-c2nc3cc(Br)c(C(=O)N4CCO[C@@H](c5ccc(F)cc5)[C@@H]4CO)cc3n2C)c2ccc(C#N)cc21`, for which, in assay [4], the concentration for half-maximal inhibition (IC50) came to 0.8 nM.

As for `Cc1ccc(S(=O)(=O)N(CC(=O)NCCOCCC(=O)NCCOCCC(=O)N[C@@H](CCCCNC(=O)/C=C/c2ccc(-c3ccccc3C(F)(F)F)o2)C(=O)O)c2ccccc2-c2ccccc2)cc1`, the Kd in assay [5] came out at 5800 nM.

Values taken from ChEMBL document CHEMBL4425089, “Chemical Space of DNA-Encoded Libraries” (J Med Chem, 2016).
